We go through 9 molecules from patent US8153773B2, “Synthesis and use of anti-reverse phosphorothioate analogs of the messenger RNA cap” (Board of Supervisors of Louisiana State University and …, priority 2007, dated 2012).

In one test the target is T1, murine eIF4E (28-217) (Mus musculus, UniProt P63073).
T1 construct: (28-217) to phosphorothioate cap analogs, as determined
Put plainly: Binding affinities for eIF4E by fluorescence quenching. To be noted: murine eIF4E (28-217); for KAS: equilibrium association constant, fluorescence quenching; for ΔG°: binding free energy calculated from KAS. The procedure: Binding affinities of S analogs for murine eIF4E were determined by fluorescence quenching. Fluorescence titration measurements were carried out on an LS-50B spectrofluorometer (Perkin Elmer Co.) in 50 mM HEPES/KOH (pH 7.2), 100 mM KCl, 0.5 mM EDTA, 1 mM DTT at 20.0±0.2° C. Aliquots of 1 μl increasing concentration of cap analogue solutions were added to 1.4 ml of […] solutions. Fluorescence intensities (excitation at 280 nm with 2.5 nm bandwidth and detection at 337 nm with 4 nm bandwidth and 290 nm cut-off filter) were corrected taking into account sample dilution and the inner filter effect. Equilibrium association constants (KAS) were determined by fitting the theoretical dependence of the fluorescence intensity on the total concentration of cap analogue to the experimental data points according to equation described previously (See A. Niedzwiecka et al., “Biophysical studies of eIF4E cap-binding protein: recognition of mRNA 5′ cap structure and synthetic fragments of eIF4G and 4E-BP1 proteins,” J. Mol. Biol., vol. 319, pp. 615-635 (2002)). The concentration of protein was fitted as a free parameter of equilibrium equation showing amount of “active” protein. The final KAS was calculated as a weighted average of three to ten independent titrations, with the weights taken as the reciprocals of the numerical standard deviations squared. Numerical nonlinear least-squares regression analysis was performed using ORGIN 6.0 (Microcal Software Inc., USA). The Gibbs free energy of binding was calculated from the KAS value according to the standard equation ΔG°=−RTlnKAS.

The next test concerns the target hDcp2 (Homo sapiens, UniProt Q8IU60). Kind of test: In vitro RNA decapping assay with recombinant hDcp2. Format: biochemical. Particulars: capped 32P-labeled short RNA, recombinant hDcp2, anion exchange HPLC (FIG. 6). The protocol: Dcp2 activity was measured with capped 48-nt oligonucleotides as substrates, a truncated form of luciferase mRNA (48 nucleotides). GST-hDcp2 was expressed in Escherichia coli and purified as described by Z. Wang et al., “The hDcp2 protein is a mammalian mRNA decapping enzyme,” Proc. Natl. Acad. Sci. U.S.A., vol. 99, pp. 12663-12668 (2002). Capped oligonucleotides were first subjected to digestion with GST-hDcp2 at 37° C. for 2 h in decapping buffer (10 mM Tris-HCl, pH 7.5, 100 mM potassium acetate, 2 mM magnesium acetate, 0.5 mM MnCl2, 2 mM dithiothreitol, and 0.1 mM spermine). See C. Piccirillo et al., “Functional characterization of the mammalian mRNA decapping enzyme hDcp2,” RNA, vol. 9, pp. 1138-1147 (2003). The reaction mixture was then extracted once with an equal volume of phenol and twice with chloroform, and RNA was precipitated with ethanol. Products of the decapping reaction were further digested with a cocktail of ribonucleases (RiboShredder; Epicentre) at 37° C. for 1 h. The products were resolved by anion-exchange HPLC on a 4.6×250-mm Partisil 10SAX/25 column (Whatman). The gradient consisted of water for 1 min, a linear gradient to 112 mM KH2PO4, pH 4.5, for 20 min, a linear gradient of 112-450 mM KH2PO4 for 15 min, a linear gradient of 450 mM to 1.5 M KH2PO4 for 15 min, and isocratic elution at 1.5 M of KH2PO4 for 9 min, all at a flow rate 1 ml/min.
We tested oligonucleotides capped with either of S-ARCAs for hydrolysis by recombinant hDcp2 to test whether mRNA capped with the various diastereomers of m2^7,2′-OGpppsG and m2^7,2′-OGppspG would differ in their sensitivity to cleavage by Dcp1/Dcp2. See generally Z. Wang et al., “The hDcp2 protein is a mammalian mRNA decapping enzyme,” Proc. Natl. Acad. Sci. U.S.A., vol. 99, pp. 12663-12668 (2002), and Z. Wang et al., “An mRNA Stability Complex Functions with Poly(A)-Binding Protein To Stabilize mRNA In Vitro”, Mol. Cell. Biol., vol. 19, pp. 4552-4560 (1999). Cap analogs used were initially unlabeled, so to follow the products of the digestion reaction we synthesized capped oligonucleotides in the presence of [α-^32P]GTP and a DNA template in which G was the first ribonucleotide specified after the promoter. The oligonucleotides capped with either of the S-ARCAs were subjected to Dcp2 digestion in vitro, after which the products were further digested with a cocktail of ribonucleases (RiboShredder from Epicenter). Any nucleotide on the 5′ side of a G residue acquired a ^32P-labeled 3′-phosphate group after ribonuclease digestion by nearest-neighbor transfer. Anion exchange chromatography was then used to resolve the labeled 3′-nucleoside monophosphates (3′-NMP*), at internal positions in the RNA, from labeled 5′-terminal products (FIG. 6). The latter comprise p3 Gp* derived from uncapped transcripts and m2^7,2′-OGp3 Gp* (when m2^7,2′-OGp3G was used), or pGp* resulting from capped RNA resistant or nonresistant to enzymatic cleavage, respectively. All cap analogs used were ARCAs, which ensured that they were incorporated into RNA exclusively in the correct orientation. This further guaranteed that only one 5′-terminal product (m2^7,2′-OGp3 Gp*) was observed upon ribonuclease treatment. Uncapped RNA is not a substrate for Dcp2, which explains why p3 Gp* product was observed after Dcp2 digestion.
See E. Grudzien et al., “Differential inhibition of mRNA degradation pathways by novel cap analogs,” J. Biol. Chem., vol. 281, pp. 1857-1867 (2006).

For test [1], the target named is T2, DcpS (Homo sapiens, UniProt Q96C86).
T2 sequence (Q96C86 1-337): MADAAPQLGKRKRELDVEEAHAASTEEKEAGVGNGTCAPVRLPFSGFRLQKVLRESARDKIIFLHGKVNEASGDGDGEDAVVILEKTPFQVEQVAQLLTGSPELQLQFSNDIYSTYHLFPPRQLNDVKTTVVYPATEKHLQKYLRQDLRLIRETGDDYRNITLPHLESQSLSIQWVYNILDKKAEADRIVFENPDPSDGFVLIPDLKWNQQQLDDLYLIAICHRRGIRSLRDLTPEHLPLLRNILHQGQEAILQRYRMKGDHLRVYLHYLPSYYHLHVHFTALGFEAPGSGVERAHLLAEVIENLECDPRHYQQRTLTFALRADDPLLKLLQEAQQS
Put plainly: Enzymatic hydrolysis by human DcpS. Format: biochemical. On the set-up: key: the analogs assigned as resistant remained completely undigested under the applied conditions; the analogs assigned as hydrolyzed were hydrolyzed by DcpS with efficiency comparable to the respective unmodified parent compound. Particulars: conditions giving complete degradation of unmodified parent within 40-90 min, RP HPLC. The procedure: (§1) Human and nematode DcpS were expressed in Escherichia coli according to the procedures described previously (L. S. Cohen et al., “Nematode m7 GpppG and m3(2,2,7)GpppG decapping: activities in Ascaris embryos and characterization of C. elegans scavenger DcpS,” RNA, vol. 10, pp. 1609-1624 (2004)). Both proteins were stored at −80° C. in 20 mM Tris buffer, pH 7.5, containing 50 mM KCl, 0.2 mM EDTA, 1 mM DTT, 0.5 mM PMSF, and 20% glycerol. An appropriate cap analog at 1 mM concentration was treated with 5.0 or 7.0 μl of DcpS (from human or C. elegans, respectively) in 500 μl of 50 mM TRIS buffer, pH=7.9, containing 20 mM of MgCl2 and 60 mM of (NH4)2SO4 at 37° C. for 60-90 min. Every 15-20 min a 100 μl sample was collected from the reaction mixture and deactivated by incubation in 90° C. for 3 min. Collected samples were analyzed without further treatment by analytical RP HPLC using a linear gradient of methanol in 0.1 M KH2PO4, pH=6.0, from 0-50% within 15 min and UV-detection at 260 nm.
(§2) The new series of S-analogs were subjected to in vitro enzymatic hydrolysis catalyzed by DcpS from both human and C. elegans sources. In all experiments, the corresponding unmodified cap analog was used as a positive control, i.e., m^7GpppG for non-ARCA S-analogs and m2^7,2′-OGpppG for S-ARCAs. The amount of DcpS enzyme was optimized to provide complete degradation of the control substrate within 40-90 min. The samples collected from reaction mixtures at various time intervals were analyzed by RP HPLC (as described in Materials and Methods).
(§3) In Table 4, cap analogs at 4 μM concentration were subjected to enzymatic digestion by DcpS in conditions leading to complete degradation of the unmodified parent compound (i.e. m^7GpppG for non-ARCA S-analogs and m2^7,2′-OGpppG for ARCAs) within 40-90 min. Samples collected from reaction mixtures at various time intervals were analysed by RP HPLC with UV detection at 260 nm as described in Materials and Methods. […] The result was unchanged even if the reaction time was extended to 24 h, various amounts of enzyme were used, and composition of the reaction buffer was modified.

Test [2] addresses T3, DcpS (Caenorhabditis elegans, UniProt G5EFS4).
T3 sequence (G5EFS4 1-311): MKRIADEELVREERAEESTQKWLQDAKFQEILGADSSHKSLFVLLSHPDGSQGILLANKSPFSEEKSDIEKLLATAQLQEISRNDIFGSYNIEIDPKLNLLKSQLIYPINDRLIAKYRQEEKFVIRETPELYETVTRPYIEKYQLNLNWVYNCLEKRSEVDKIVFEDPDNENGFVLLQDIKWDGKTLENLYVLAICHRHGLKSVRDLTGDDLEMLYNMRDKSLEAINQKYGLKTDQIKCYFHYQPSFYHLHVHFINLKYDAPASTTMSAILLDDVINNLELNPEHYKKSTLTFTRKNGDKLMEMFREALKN
Put plainly: Enzymatic hydrolysis by C. elegans DcpS. Format: biochemical. Set-up: key: the analogs assigned as resistant remained completely undigested under the applied conditions; the analogs assigned as hydrolyzed were hydrolyzed by DcpS with efficiency comparable to the respective unmodified parent compound. To be noted: conditions giving complete degradation of unmodified parent within 40-90 min, RP HPLC. The procedure:
as §1, §2, §3

T1 sequence (P63073 28-217): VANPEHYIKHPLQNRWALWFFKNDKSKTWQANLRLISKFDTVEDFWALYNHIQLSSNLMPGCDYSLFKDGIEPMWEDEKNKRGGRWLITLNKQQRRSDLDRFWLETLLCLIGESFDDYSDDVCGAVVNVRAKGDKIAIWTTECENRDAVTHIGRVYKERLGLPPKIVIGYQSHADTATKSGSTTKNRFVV

The molecule `CO[C@@H]1[C@H](O)[C@@H](COP(=O)(O)OP(=O)([O-])OP(=O)(O)OP(=O)(O)OC[C@H]2O[C@@H](n3cnc4c(=O)[nH]c(N)nc43)[C@H](O)[C@@H]2O)O[C@H]1n1c[n+](C)c2c(O)nc(N)nc21` [m^7,2′-OGppppG, reference compound] came in with a KAS on murine eIF4E (28-217) of 99.8 ± 6.0 µM⁻¹.
As to m2^7,2′-OGpppsG, at hDcp2, the “hydrolysis of capped oligonucleotide by hDcp2” value is on record as “no increase in stability toward hDcp2”.
For the molecule m2^7,2′-OGpsppG, the “hydrolysis of capped oligonucleotide by hDcp2” value at hDcp2 is on record as “no increase in stability toward hDcp2”.
Regarding m^7GpppsG (D1) [Compound 1a], at murine eIF4E (28-217), the “ΔG°” value was -9.88 ± 0.02 kcal/mol and the KAS is 23.6 ± 0.8 µM⁻¹. In addition, the “Resistance to enzymatic hydrolysis by DcpS (human)” value (shortened to “Resistance … (human)”) on DcpS [1] is recorded as “hydrolyzed”. For the same molecule, the “Resistance to enzymatic hydrolysis by DcpS (from C. elegans)” value (“Resistance … (from C. elegans)” for short) at DcpS [2] was “hydrolyzed”.
Regarding m^7GpppsG (D2) [Compound 1b], at murine eIF4E (28-217), the “ΔG°” value was -9.54 ± 0.03 kcal/mol and the KAS is 13.1 ± 0.8 µM⁻¹. Besides, the “Resistance … (human)” value on DcpS [1] is “hydrolyzed”. The “Resistance … (from C. elegans)” value at DcpS [2] is “hydrolyzed”.
m^7GppspG (D1) [Compound 2a]: on murine eIF4E (28-217), the “ΔG°” value is -10.26 ± 0.01 kcal/mol and the KAS is 45.0 ± 1.1 µM⁻¹. Also, on DcpS [1], the “Resistance … (human)” value is recorded as “hydrolyzed”. The “Resistance … (from C. elegans)” value at DcpS [2] is on record as “hydrolyzed”.
Regarding m^7GppspG (D2) [Compound 2b], on murine eIF4E (28-217), the “ΔG°” value was -9.87 kcal/mol and the KAS amounted to 23.0 ± 0.4 µM⁻¹. The “Resistance … (human)” value at DcpS [1] was “hydrolyzed”. The “Resistance … (from C. elegans)” value on DcpS [2] is “hydrolyzed”.
For m^7GpsppG (D1) [Compound 3a], the “Resistance … (human)” value on DcpS [1] is on record as “resistant”. Further, the “Resistance … (from C. elegans)” value on DcpS [2] is “resistant”.
With m^7GpsppG (D2) [Compound 3b], at DcpS [1], the “Resistance … (human)” value was “resistant”. Further, the “Resistance … (from C. elegans)” value on DcpS [2] is listed as “resistant”.
